Measurements: US4499104A, “Imidazole compound, the process for its preparation, and therapeutically active compositions containing same” (priority 1976, dated 1985)
“Also recorded” adds a separate entry of the source.

Experiments:
[1] = Edema by carrageen (rat paw), antiedematous activity; format: in vivo, Rats of the Wistar-Roux-Ocefa stock
Procedure: (§1) A 1% physiological solution of carrageen was used. Rats of the Wistar-Roux-Ocefa stock having a weight of 150±30 g were used. The drugs were suspended in 1% carboxymethylcellulose or dissolved in distilled water and administered orally one hour before the inflammatory agent in a volume of 0.5 ml/100 g. The carrageen was adminstered subcutaneously in the subplanetary region of one of the rear paws. The volume of the paw was measured platysmagraphically initially and then after 1.5 hour, 3 hours and 5 hours after administering the carrageen. One inflammation unit was defined as the displacement of 0.01 ml of Hg.
(§2) The edema was evaluated as the difference in volume of the rear paw before and after the carrageen. The DE 50 was calculated by the probits method and graphically. The comparison drugs used were phenylbutazone and niflumic acid.

[2] = Edema by carrageen in normal and adrenoprival (suprarenectomised) rats; format: in vivo, rat; set-up: Edema by carrageen: unit not given beside the values
Procedure: as §1, §2
To evaluate if the activity of the chlorophenazole on edema by carrageen was influenced by stimulation of the suprarenes, experiments were carried out with suprarenectomised rats. Normal rats were also compared with falsely operated rats to evaluate the influence of the operational trauma.

[3] = Pulminary edema by carrageen (Sancilio method, pleural exudate); format: in vivo, Wistar-Roux-Ocefa rats
Procedure: Using the Sancilio method (Sancilio F. L., J. Pharmacol. Exptl. Therap., 168, 199 (1969); Sancilio L. F. Rodrigues R., Proc. Soc. Exptl. Biol. Med., 123, 707 (1969); Sancilio L. F. Lawrence R., Proc. Soc. Exptl. Biol. Med., 127, 597 (1968), pulminary irritation was induced in Wistar-Roux-Ocefa rats and the capacity of chlorophenazole and other drugs to prevent production of pleural exudate was measured. 5 ml of a 0.025% carrageen solution and 0.075% Evans blue were injected into the pleurea.
The action of chlorophenazole, mepyrazole and phenylbutazone were evaluated from the quantity of exudate present in the pleural cavity after 1 and 6 hours.

[4] = Stretching by acetic acid (chemical stimulus), analgesic activity; format: in vivo, mice, Rockland-Roux-Ocefa stock
Procedure: Twelve mice of both sexes, Rockland-Roux-Ocefa stock of weight 23-25 g were used per group. The drugs were administered orally 30 minutes before i.p. injection of 0.1 ml/10 g of 0.6% acetic acid.

[5] = Hot plate method (thermal stimulus), analgesic activity; format: in vivo, Male mice
Procedure: This is based on the time (seconds) taked by the mouse for removing his paws from a plate heated to 56° C. Male mice were used of weight 25 to 27 g, preselected so that all reacted in a time less than 20 seconds.
The reaction time was measured 15, 30 and 60 minutes after administering the drugs. The chlorophenazole was tested orally and subcutaneously, both alone and associated with morphine hydrochloride. […] (FIGS. 2 and 3).

Cc1[nH]cnc1-c1ccc(Cl)cc1 [Chlorophenazole, 4-(p-chlorophenyl)-5-methylimidazole]
Δ Volume of the inflamed paw ([1]; 10 mg/kg oral, 1.5 hours): 15 UPI
Δ Volume of the inflamed paw ([1]; 10 mg/kg oral, 3 hours): 35 UPI
Δ Volume of the inflamed paw ([1]; 10 mg/kg oral, 5 hours): 58 UPI
Δ Volume of the inflamed paw ([1]; 20 mg/kg oral, 1.5 hours): 15 UPI
Δ Volume of the inflamed paw ([1]; 20 mg/kg oral, 3 hours): 29 UPI
Δ Volume of the inflamed paw ([1]; 20 mg/kg oral, 5 hours): 44 UPI
Δ Volume of the inflamed paw ([1]; 40 mg/kg oral, 1.5 hours): 15 UPI
Δ Volume of the inflamed paw ([1]; 40 mg/kg oral, 3 hours): 23 UPI
Δ Volume of the inflamed paw ([1]; 40 mg/kg oral, 5 hours): 42 UPI
IT (DL50/DE50) ([1]; DL50/DE50, os): 73.60
ED50 ([1]; Rattus norvegicus, po, os, probits method and graphically, read-out: DE50 (the source's name)): 7 mg/kg
antiedematous activity relative to comparison drugs ([1]; oral): more active than phenylbutazone; also recorded: only slightly more active than niflumic acid
antiinflamatory analgesic activity, overall comparison ([1]; summary of the tests): decidedly better than phenylbutazone, niflumic acid, clonixine or mepyrazole
dependence of activity on the suprarenal cortex ([2]; adrenoprival rats): independent of the suprarenal cortex
Edema by carrageen ([2]; adrenoprival rats, 10 mg/kg, 1.5 hours): 22
Edema by carrageen ([2]; adrenoprival rats, 10 mg/kg, 3 hours): 27
Edema by carrageen ([2]; adrenoprival rats, 10 mg/kg, 5 hours): 55
Edema by carrageen ([2]; adrenoprival rats, 20 mg/kg, 1.5 hours): 16
Edema by carrageen ([2]; adrenoprival rats, 20 mg/kg, 3 hours): 18
Edema by carrageen ([2]; adrenoprival rats, 20 mg/kg, 5 hours): 45
Edema by carrageen ([2]; adrenoprival rats, 40 mg/kg, 1.5 hours): 13
Edema by carrageen ([2]; adrenoprival rats, 40 mg/kg, 3 hours): 20
Edema by carrageen ([2]; adrenoprival rats, 40 mg/kg, 5 hours): 39
Edema by carrageen ([2]; normal rats, 10 mg/kg, 1.5 hours): 15
Edema by carrageen ([2]; normal rats, 10 mg/kg, 3 hours): 35
Edema by carrageen ([2]; normal rats, 10 mg/kg, 5 hours): 58
Edema by carrageen ([2]; normal rats, 20 mg/kg, 1.5 hours): 15
Edema by carrageen ([2]; normal rats, 20 mg/kg, 3 hours): 29
Edema by carrageen ([2]; normal rats, 20 mg/kg, 5 hours): 44
Edema by carrageen ([2]; normal rats, 40 mg/kg, 1.5 hours): 15
Edema by carrageen ([2]; normal rats, 40 mg/kg, 3 hours): 23
Edema by carrageen ([2]; normal rats, 40 mg/kg, 5 hours): 42
ml of exudate ([3]; 30 mg/Kg, pleural cavity): 3.11 mL
activity on pleural exudate ([3]; exudate after 1 and 6 hours): significantly active
% effect ([4]; 21.3 mg/kg oral): 18%
Number of stretches/20 min. ([4]; 21.3 mg/kg oral): 70 stretches/20 min.
% effect ([4]; 33.0 mg/kg oral): 42%
Number of stretches/20 min. ([4]; 33.0 mg/kg oral): 49 stretches/20 min.
% effect ([4]; 51.0 mg/kg oral): 66%
Number of stretches/20 min. ([4]; 51.0 mg/kg oral): 29 stretches/20 min.
analgesic activity ([4]; oral): very good analgesic activity, decidedly better than that of the clonixine (Table 5) and mepyrazole
reaction time relative to control mice ([5]; 50 mg/kg oral): significantly prolongs the reaction time relative to the control mice
effect on morphine analgesia ([5]; associated with morphine hydrochloride): evident increase exerted by the drug on morphine analgesia
